Experimental data taken from patent US8815846B2, “Family of antichagasics derived from imidazo[4,5-C][1,2,6]thiadiazine 2,2-dioxide” (Universidad de la Republica de Uruguay, priority 2009, dated 2014).
Read-outs that look alike come from different tables or passages of the source.

How the values were obtained:
J774 murine macrophages = experiment: Non-specific cytotoxicity against J774 murine macrophages (MTT/formazan); format: cell-based; conditions: for PC J774 macrophages (%) (percentage of non-specific cytotoxicity): MTT; for IC50: Mus musculus, read-out: IC50 concentration of compound which reduces the growth of macrophages by 50%
Protocol: The cellular viability was determined based on the conservation of mitochondrial activity by the MTT/formazan method.

[1] = test system: Trypanosoma cruzi, epimastigote form of the Tulahuen 2 strain; experiment: In vitro growth inhibition of Trypanosoma cruzi epimastigotes (Tulahuen 2 strain), absorbance at 600 nm; format: cell-based; conditions: 120 h, absorbance on day 5, duplicate, error ±3%, read-out: IC50 Anti-T. cruzi activity of the Tulahuen 2 strain
Protocol: The studies of the antichagasic activity were performed in vitro against Trypanosoma cruzi, on the epimastigote form of the Tulahuen 2 strains, (from the strains collection of the Biological Physicochemistry Laboratory, of the Institute of Biological Chemistry, of the Faculty of Science, University of the Republica Oriental of Uruguay, Uruguay). Said strains were cultured at 28° C. in an axenic medium (BHI-tryptose), complemented with 5% of fetal bovine serum. […] The growth of the parasite was followed during 11 days by culture absorbance measurements at 600 nm, proportional to the number of cells present. Before inoculation, a pre-established quantity of each compound of the invention to test was incorporated in the medium, dissolved in DMSO (dimethylsulfoxide). The final concentration of DMSO in the culture medium never exceeded 0.4%, using a blank (absence of product or compound of the invention) with 0.4% DMSO. […] The growth PI was calculated as follows: PI={1−[(Ap−Aop)/(Ac−Aoc)]}×100 where: • Ap=A600 nm of the culture containing the product on day 5. • Aop=A600 nm of the culture containing the product after addition of the culture (day 0). • Ac=A600 nm of the blank on day 5. • Aoc=A600 nm of the blank on day 0. The A600 nm taken on day 5 corresponds to the late exponential phase in the culture growth curve. The determination of the IC50 (half maximal inhibitory concentration) was performed following the growth of the parasite in the absence (control) and presence of increasing concentrations of the corresponding products. The absorbance was measured on day 5 and it was related to the control.

cruzipain = cruzipain (Trypanosoma cruzi, UniProt P25779); experiment: Cruzipain enzyme inhibition (chromogenic substrate Bz-Pro-Phe-Arg-p-NA, absorbance 410 nm); format: biochemical; conditions: 10 min preincubation, pH 7.6, read-out: % Inhibition CP (cruzipain); for inhibition at 25 µM: 25 μM inhibitor; for inhibition at 50 µM: 50 μM inhibitor; for inhibition at 100 µM: 100 μM inhibitor
Protocol: The capacity of inhibiting the cruzipain enzyme was performed according to the protocol detailed below: cruzipain (10 μL) was incubated with a reaction mixture containing a final concentration of 50 mM of Tris-HCl buffer solution, pH 7.6, 10 mM β-mercaptoethanol and 25, 50 or 100 μM of the inhibitor during 10 min at ambient temperature. Later the chromogenic substrate Bz-Pro-Phe-Arg-p-NA was aggregated at a final concentration of 150 μM, and the increase in absorbance at 410 nm was followed for 5 min at temperature in a Beckman DU 650 spectrophotometer. The inhibitors were added dissolved in DMSO and the controls (100% of enzymatic activity) contained the same concentration of solvent. The final volume of the assay is 100 μL. The values represented at least three independent assays. The data obtained for some of the derivatives in table 3 are shown by way of example.

[2] = J774 murine macrophages, 48 hours, average of two evaluations

Chain of cruzipain (P25779 123-467): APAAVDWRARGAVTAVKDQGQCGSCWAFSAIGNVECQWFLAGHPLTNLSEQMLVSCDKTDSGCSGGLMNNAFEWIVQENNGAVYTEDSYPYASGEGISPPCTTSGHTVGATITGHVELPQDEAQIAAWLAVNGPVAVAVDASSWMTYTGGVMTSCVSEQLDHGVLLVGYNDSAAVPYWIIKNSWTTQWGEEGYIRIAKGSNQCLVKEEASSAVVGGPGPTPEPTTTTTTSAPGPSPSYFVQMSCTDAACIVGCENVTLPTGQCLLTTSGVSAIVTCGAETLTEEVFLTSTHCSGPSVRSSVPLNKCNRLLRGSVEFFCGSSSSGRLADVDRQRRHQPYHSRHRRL

In the case of NC1=NS(=O)(=O)Nc2nc(Cc3ccccc3)[nH]c21 [drawing 19], the “PC J774 macrophages (%) (percentage of non-specific cytotoxicity)” value (J774 murine macrophages; 100 μM compound, 48 hours) is reported as 17.6%, the “PC J774 macrophages (%) (percentage of non-specific cytotoxicity)” value (J774 murine macrophages; 200 μM compound, 48 hours) is reported as 24.3% and the “PC J774 macrophages (%) (percentage of non-specific cytotoxicity)” value (J774 murine macrophages; 400 μM compound, 48 hours) is reported as 29.4%. The IC50 (J774 murine macrophages; [2]) was > 400 µM.

For CN(C/C=C/C#CC(C)(C)C)Cc1cccc2ccccc12 [Terbinafine, reference compound], the “PC J774 macrophages (%) (percentage of non-specific cytotoxicity)” value (J774 murine macrophages; 100 μM compound, 48 hours) was 10.0%, the “PC J774 macrophages (%) (percentage of non-specific cytotoxicity)” value (J774 murine macrophages; 200 μM compound, 48 hours) was 26.0% and the “PC J774 macrophages (%) (percentage of non-specific cytotoxicity)” value (J774 murine macrophages; 400 μM compound, 48 hours) was 60.0%. The IC50 (J774 murine macrophages; [2]) was 339 µM.

In the case of NC1=NS(=O)(=O)N(Cc2ccc(Cl)cc2)c2nc(-c3ccccc3F)[nH]c21 [drawing 21], the “PC J774 macrophages (%) (percentage of non-specific cytotoxicity)” value (J774 murine macrophages; 100 μM compound, 48 hours) is reported as 100.0%, the “PC J774 macrophages (%) (percentage of non-specific cytotoxicity)” value (J774 murine macrophages; 200 μM compound, 48 hours) is reported as 100.0% and the “PC J774 macrophages (%) (percentage of non-specific cytotoxicity)” value (J774 murine macrophages; 400 μM compound, 48 hours) is reported as 100.0%. The IC50 (J774 murine macrophages; [2]) was < 100 µM.

Work on O=C(Cn1ccnc1[N+](=O)[O-])NCc1ccccc1 [Benznidazole, N-benzyl-2-nitro-1-imidazole acetamide, reference compound] yielded an IC50 [1] of 7.4 µM.

NC1=NS(=O)(=O)Nc2nc(-c3ccccc3F)[nH]c21 showed an IC50 [1] of 20.2 µM.

In the case of CN(C)c1ccc(-c2nc3c([nH]2)C(N)=NS(=O)(=O)N3)cc1, the IC50 [1] is reported as 28.5 µM.

For CN1c2nc(-c3ccccc3)[nH]c2C(N)=NS1(=O)=O [drawing 22], the “PC J774 macrophages (%) (percentage of non-specific cytotoxicity)” value (J774 murine macrophages; 100 μM compound, 48 hours) was 22.5%, the “PC J774 macrophages (%) (percentage of non-specific cytotoxicity)” value (J774 murine macrophages; 200 μM compound, 48 hours) was 77.5% and the “PC J774 macrophages (%) (percentage of non-specific cytotoxicity)” value (J774 murine macrophages; 400 μM compound, 48 hours) was 99.0%. The IC50 (J774 murine macrophages; [2]) was 128 µM.

Compound NC1=NS(=O)(=O)N(Cc2ccccc2)c2nc(C3CCCCC3)n(Cc3ccccc3)c21 [drawing 23] has an inhibition at 25 µM (cruzipain) of 0%, an inhibition at 50 µM (cruzipain) of 30% and an inhibition at 100 µM (cruzipain) of 58%.

NC1=NS(=O)(=O)Nc2nc(C3CCOC3)[nH]c21 (stereo not shown) [drawing 12] showed an IC50 [1] of 20.3 µM.

Work on NC1=NS(=O)(=O)Nc2nc(-c3ccsc3)[nH]c21 yielded an IC50 [1] of 22.2 µM.

In the case of NC1=NS(=O)(=O)Nc2nc(C3CCCCC3)[nH]c21 [drawing 20], the “PC J774 macrophages (%) (percentage of non-specific cytotoxicity)” value (J774 murine macrophages; 100 μM compound, 48 hours) is reported as 1.4%, the “PC J774 macrophages (%) (percentage of non-specific cytotoxicity)” value (J774 murine macrophages; 200 μM compound, 48 hours) is reported as 8.0% and the “PC J774 macrophages (%) (percentage of non-specific cytotoxicity)” value (J774 murine macrophages; 400 μM compound, 48 hours) is reported as 11.5%. The IC50 (J774 murine macrophages; [2]) was > 400 µM.

NC1=NS(=O)(=O)Nc2nc(CCc3ccccc3)[nH]c21 [drawing 14] gave an IC50 [1] of 11.5 µM.

NC1=NS(=O)(=O)Nc2nc(Cc3ccccc3)[nH]c21 [drawing 7] gave an IC50 [1] of 16.2 µM.

For CN1c2nc(-c3ccccc3)[nH]c2C(N)=NS1(=O)=O [drawing 8], the IC50 [1] was 16.7 µM.

In the case of CC1CS(=O)(=O)CCN1N=Cc1ccc([N+](=O)[O-])o1 (stereo not shown) [Nifurtimox, 4-([5 nitrofurfurylidene]-amino)-3-methylthiomorpholine-1,1-dioxide, reference compound], the IC50 [1] is reported as 7.7 µM and the IC50 (J774 murine macrophages; J774, 48 h) is reported as 316 µM.

NC1=NS(=O)(=O)Nc2nc(C3CCCC3)[nH]c21 gave an IC50 [1] of 28.9 µM.

Work on NC1=NS(=O)(=O)N(Cc2ccccc2)c2nc(-c3ccccc3)n(Cc3ccc(Cl)cc3)c21 [Example 3b, 4-amino-1-benzyl-5-(4-chlorobenzyl)-6-phenylimidazo[4,5-c][1,2,6]thiadiazine 2,2-dioxide] yielded a melting point of 245 to 247 °C.

Compound NC1=NS(=O)(=O)N(Cc2ccccc2)c2nc(-c3ccccc3)n(Cc3ccccc3)c21 [drawing 10] has an IC50 [1] of 4.5 µM.

NC1=NS(=O)(=O)N(Cc2ccc(Cl)cc2)c2nc(-c3ccccc3F)[nH]c21 [drawing 16] showed an IC50 [1] of 7 µM.

Work on NC1=NS(=O)(=O)N(Cc2ccccc2)c2nc(C3CCCCC3)n(Cc3ccc(Cl)cc3)c21 yielded an inhibition at 25 µM (cruzipain) of 10%, an inhibition at 50 µM (cruzipain) of 39% and an inhibition at 100 µM (cruzipain) of 40%.

NC1=NS(=O)(=O)Nc2nc(C3CCOC3)[nH]c21 (stereo not shown) [Example 1b, 4-amino-6-(3-tetrahydrofuryl)-1H,5H-imidazo[4,5-c][1,2,6]thiadiazine 2,2-dioxide] gave a melting point of 238 to 240 °C.

Compound NC1=NS(=O)(=O)Nc2nc(C3CCCCC3)[nH]c21 [drawing 11] has an IC50 [1] of 12.7 µM.

NC1=NS(=O)(=O)Nc2nc(CCc3ccccc3)[nH]c21 [Example 1c, 4-amino-6-phenethyl-1H,5H-imidazo[4,5-c][1,2,6]thiadiazine 2,2-dioxide] gave a melting point of 190 to 192 °C.

NC1=NS(=O)(=O)N(Cc2ccc(Cl)cc2)c2nc(C3CCCCC3)n(Cc3ccc(Cl)cc3)c21 gave an inhibition at 100 µM (cruzipain) of 31%.

NC1=NS(=O)(=O)N(Cc2ccc(Cl)cc2)c2nc(-c3ccccc3F)[nH]c21 [drawing 27] showed an inhibition at 25 µM (cruzipain) of 7%, an inhibition at 50 µM (cruzipain) of 30% and an inhibition at 100 µM (cruzipain) of 30%.

NC1=NS(=O)(=O)N(Cc2ccccc2)c2nc(-c3ccccc3)n(Cc3ccc(Cl)cc3)c21 [drawing 18] gave an IC50 [1] of 10 µM.

NC1=NS(=O)(=O)Nc2nc(C3CCCCC3)[nH]c21 [Example 1a, 4-amino-6-cyclohexyl-1H,5H-imidazo[4,5-c][1,2,6]thiadiazine 2,2-dioxide] gave a melting point of 263 to 265 °C.

With CC(=O)N1CCN(c2ccc(OCC3COC(Cn4ccnc4)(c4ccc(Cl)cc4Cl)O3)cc2)CC1 (stereo not shown) [Ketoconazole, reference compound] the IC50 (J774 murine macrophages; J774, 48 h) was < 100 µM.

NC1=NS(=O)(=O)N(Cc2ccccc2)c2nc(-c3ccccc3)n(Cc3ccccc3)c21 [Example 3a, 4-amino-1,5-dibenzyl-6-phenylimidazo[4,5-c][1,2,6]thiadiazine 2,2-dioxide] gave a melting point of 238 to 240 °C.

With NC1=NS(=O)(=O)N(Cc2ccc(Cl)cc2)c2nc(C3CCCCC3)[nH]c21 the inhibition at 25 µM (cruzipain) was 0%, the inhibition at 50 µM (cruzipain) was 7% and the inhibition at 100 µM (cruzipain) was 28%.

Work on CN1c2nc(-c3ccsc3)[nH]c2C(N)=NS1(=O)=O yielded an IC50 [1] of 26.2 µM.

In the case of CCc1nc2c([nH]1)C(N)=NS(=O)(=O)N2, the IC50 [1] is reported as 28.5 µM.

For NC1=NS(=O)(=O)N(Cc2ccccc2)c2nc(-c3ccccc3)[nH]c21, the IC50 [1] was 29.5 µM.

Work on NC1=NS(=O)(=O)N(Cc2ccccc2)c2nc(C3CCCCC3)n(Cc3ccccc3)c21 [drawing 17] yielded an IC50 [1] of 28.7 µM.
